Legend:
Test in all cases: relative viability (nuclei count vs DMSO), 5 days (fraction); higher = more cells survive
[1] = compound: CCn1c(-c2nonc2N)nc2cnc(Oc3cccc(NC(=O)c4ccc(OCCN5CCOCC5)cc4)c3)cc21 + C[C@]1(O)C[C@@H](c2nc(-c3ccc4ccc(-c5ccccc5)nc4c3)c3c(N)nccn32)C1 [Linsitinib] (partner 1 µM)
How it was run: (§1)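 Five library-drug doses in √10 steps were combined with a fixed anchor-drug dose, or a single drug was given alone, by pin tool to lung cancer cell lines in 1536-well plates the day after seeding. Nuclei were stained and counted after 5 days. Relative viability is the nuclei count in treated wells over that in vehicle wells, taken as the median of duplicate plates.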

Mirin + Luminespib = compound: N=C1NC(=O)/C(=C/c2ccc(O)cc2)S1 [Mirin] + CCNC(=O)c1noc(-c2cc(C(C)C)c(O)cc2O)c1-c1ccc(CN2CCOCC2)cc1 [Luminespib] (partner 0.01 µM)
How it was run: as §1

Mirin + OSI-027 = compound: N=C1NC(=O)/C(=C/c2ccc(O)cc2)S1 [Mirin] + COc1cccc2cc(-c3nc([C@H]4CC[C@H](C(=O)O)CC4)n4ncnc(N)c34)[nH]c12 [OSI-027] (partner 0.5 µM)
How it was run: as §1

Mirin + Pemetrexed = compound: N=C1NC(=O)/C(=C/c2ccc(O)cc2)S1 [Mirin] + Nc1nc2[nH]cc(CCc3ccc(C(=O)N[C@@H](CCC(=O)O)C(=O)O)cc3)c2c(=O)[nH]1 [Pemetrexed] (partner 0.2 µM)
How it was run: as §1

Cell Line | relative viability ([1]; first compound 0.04 µM) | relative viability ([1]; first compound 0.1265 µM) | relative viability ([1]; first compound 0.4 µM) | relative viability ([1]; first compound 1.265 µM) | relative viability ([1]; first compound 4 µM) | relative viability (Mirin + Luminespib; first compound 0.25 µM) | relative viability (Mirin + Luminespib; first compound 0.7906 µM) | relative viability (Mirin + Luminespib; first compound 2.5 µM) | relative viability (Mirin + Luminespib; first compound 7.906 µM) | relative viability (Mirin + Luminespib; first compound 25 µM) | relative viability (Mirin + OSI-027; first compound 0.25 µM) | relative viability (Mirin + OSI-027; first compound 0.7906 µM) | relative viability (Mirin + OSI-027; first compound 2.5 µM) | relative viability (Mirin + OSI-027; first compound 7.906 µM) | relative viability (Mirin + OSI-027; first compound 25 µM) | relative viability (Mirin + Pemetrexed; first compound 0.25 µM) | relative viability (Mirin + Pemetrexed; first compound 0.7906 µM) | relative viability (Mirin + Pemetrexed; first compound 2.5 µM) | relative viability (Mirin + Pemetrexed; first compound 7.906 µM) | relative viability (Mirin + Pemetrexed; first compound 25 µM)
NCI-H661 | 0.652 | 0.612 | 0.518 | 0.471 | 0.45 | 0.929 | 1.03 | 0.945 | 0.978 | 0.97 | 0.755 | 0.893 | 0.702 | 0.62 | 0.606 | 0.906 | 1.01 | 0.942 | 0.953 | 0.822
NCI-H838 | 0.863 | 0.49 | 0.439 | 0.392 | 0.289 | 0.316 | 0.332 | 0.285 | 0.229 | 0.396 | 0.394 | 0.394 | 0.414 | 0.374 | 0.406 | 0.235 | 0.259 | 0.258 | 0.236 | 0.188
NCI-H1355 | 0.904 | 0.77 | 0.802 | 0.834 | 0.812 | 0.724 | 0.855 | 0.764 | 0.689 | 0.548 | 0.411 | 0.376 | 0.379 | 0.406 | 0.424 | 1.06 | 1.09 | 1.08 | 1 | 1.11
NCI-H1395 | 1.25 | 0.931 | 1.04 | 0.502 | 0.616 | 0.687 | 0.449 | 0.662 | 0.649 | 0.622 | 0.616 | 0.618 | 0.705 | 0.61 | 0.564 | 0.898 |  | 0.847 | 0.829 | 0.618
NCI-H1437 | 1.31 | 1 | 1.05 | 0.742 | 0.549 | 1.13 | 1.11 | 1.08 | 1.09 | 1.11 | 0.853 | 0.895 | 0.948 | 0.832 | 0.643 | 0.313 | 0.351 | 0.377 | 0.345 | 0.31
NCI-H1563 | 1.1 | 1.1 | 1.12 | 0.884 | 0.869 | 0.54 | 0.6 | 0.476 | 0.589 | 0.5 | 0.697 | 0.816 | 0.744 | 0.731 | 0.648 | 0.854 | 0.898 | 0.98 | 0.745 | 0.769
NCI-H1651 | 1.15 | 1.1 | 0.986 | 0.859 | 0.642 | 0.851 | 0.694 | 0.833 | 0.854 | 0.784 | 0.782 | 0.701 | 0.877 | 0.549 | 0.662 | 0.241 | 0.532 | 0.599 | 0.532 | 0.612
NCI-H1666 | 0.797 | 0.985 | 0.949 | 0.667 | 0.413 | 1.03 | 1.13 | 1.01 | 0.936 | 0.949 | 0.795 | 0.949 | 0.806 | 0.79 | 0.682 | 0.821 | 0.805 | 0.827 | 0.875 | 0.841
